{"source": "patent US20240425501A1", "about": "“NOVEL BICYCLIC HETEROARYL DERIVATIVES AS SOS1:KRAS PROTEINPROTEIN INTERACTION INHIBITORS” (SATYARX PHARMA INNOVATIONS PVT LTD, priority 2021, published 2024)"}
{"molecular_target": "T1, hSOS1 enzyme / KRAS (G12C), GST-Tag, GDP-bound protein (Homo sapiens, UniProt Q07889)", "T1 sequence (Q07889 564-1049 limits assumed)": "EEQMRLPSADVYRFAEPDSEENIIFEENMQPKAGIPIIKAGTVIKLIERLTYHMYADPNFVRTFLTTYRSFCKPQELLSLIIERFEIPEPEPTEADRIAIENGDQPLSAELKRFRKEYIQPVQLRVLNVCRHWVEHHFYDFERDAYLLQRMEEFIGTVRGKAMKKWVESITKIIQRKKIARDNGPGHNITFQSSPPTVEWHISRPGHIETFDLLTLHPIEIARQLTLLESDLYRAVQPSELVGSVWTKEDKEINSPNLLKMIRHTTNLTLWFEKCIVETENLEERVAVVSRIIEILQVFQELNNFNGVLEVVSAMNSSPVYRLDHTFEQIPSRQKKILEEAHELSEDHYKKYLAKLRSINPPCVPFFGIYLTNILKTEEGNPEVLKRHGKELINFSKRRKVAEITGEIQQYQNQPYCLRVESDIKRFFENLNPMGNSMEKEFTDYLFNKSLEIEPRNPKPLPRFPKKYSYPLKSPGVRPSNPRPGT", "test": "SOS1-mediated KRAS guanine nucleotide exchange (GEF) assay, HTRF (\"On Assay\")", "assay_type": "biochemical", "settings": "1 μM compound", "description": "Biochemical Assay: Measurement of SOS1-Mediated KRAS Guanine Nucleotide Exchange (GEF) Assay\nThis assay quantifies the HTRF-based SOS1 mediated guanine nucleotide exchange assay detecting GTP binding to KRAS (G12C), GST-Tag, GDP-bound protein. This is also referred as “On Assay”.The assay buffer composition is as follows: 10 mM HEPES pH-7, 150 mM NaCl, 5 mM MgCl2, 1 mM DTT, 0.05% BSA, 0.0025% IGEPAL CA-630 and MilliQ water. 0.5 μl of compounds diluted in assay buffer were dispensed into the respective wells of 384 black well test plate. 4.75 μl of KRAS working solution containing 100 nM KRAS (G12C), GST-Tag, GDP-bound protein GDP-loaded (Reaction biology) and 2 nM Anti GST-Tb cryptate (FRET donor, Cisbio) was added in assay buffer. The components were incubated for 10 min at 25° C.\n4.75 μl of hSOS1 working solution containing 20 nM hSOS1 enzyme and 200 nM EDA-GTP-DY-647P (FRET acceptor, synthesized by Jena Bioscience (Germany), supplied as a 1 mM solution) was further added in assay buffer. 4.75 μl of inhibitor control having only 200 nM EDA-GTP-DY-647P1 component without hSOS1 working solution was added in the negative control well. The plate was short spun for few seconds and incubated for 10 min. HTRF was measured using Perkin Elmer-Nivo 5F multimode plate reader.\nHTRF settings: EXCITATION FILTER—320/75 nm, EMISSION FILTER (1) —615/8 nm, EMISSION FILTER (2)—665/8 nm", "units": {"inhibition at 1 µM": "%"}}
{"smiles": "CC1CCN(c2cc3c(N[C@H](C)c4cc(N)cc(C(F)(F)F)c4)nc(Cl)nc3cn2)CC1", "note": "[Example 27, (R)—N-(1-(3-amino-5-(trifluoromethyl)phenyl)ethyl)-2-chloro-6-(4-methylpiperidin-1-yl)pyrido[3,4-d]pyrimidin-4-amine]", "inhibition at 1 µM": "≥ 50"}
{"smiles": "CNc1cc2c(N[C@H](C)c3cc(N)cc(C(F)(F)F)c3)nc(N3CCC3)nc2cn1", "note": "[Example 56, (R)—N4-(1-(3-amino-5-(trifluoromethyl)phenyl)ethyl)-2-(azetidin-1-yl)-N6-methylpyrido[3,4-d]pyrimidine-4,6-diamine]", "inhibition at 1 µM": "≥ 50"}
{"smiles": "CNCCNc1nc(N[C@H](C)c2cc(N)cc(C(F)(F)F)c2)c2cc(N3CCOCC3)ncc2n1", "note": "[Example 35, (R)—N4-(1-(3-amino-5-(trifluoromethyl)phenyl)ethyl)-N2-(2-(methylamino)ethyl)-6-morpholinopyrido[3,4-d]pyrimidine-2,4-diamine]", "inhibition at 1 µM": "≥ 50"}
{"smiles": "C[C@@H](Nc1nc(N2CCC2)nc2cnc(N3CCCC3)cc12)c1cc(N)cc(C(F)(F)F)c1", "note": "[Example 16, (R)—N-(1-(3-amino-5-(trifluoromethyl)phenyl)ethyl)-2-(azetidin-1-yl)-6-(pyrrolidin-1-yl)pyrido[3,4-d]pyrimidin-4-amine]", "inhibition at 1 µM": "≥ 50"}
{"smiles": "C[C@@H](Nc1nc(N2CCC2)nc2cnc(N3CCC(F)(F)CC3)cc12)c1cc(N)cc(C(F)(F)F)c1", "note": "[Example 51, (R)—N-(1-(3-amino-5-(trifluoromethyl)phenyl)ethyl)-2-(azetidin-1-yl)-6-(4,4-difluoropiperidin-1-yl)pyrido[3,4-d]pyrimidin-4-amine]", "inhibition at 1 µM": "≥ 50"}
{"smiles": "C[C@@H](Nc1nc(Cl)nc2cnc(N3CCN(C)CC3)cc12)c1cc(N)cc(C(F)(F)F)c1", "note": "[Example 23, (R)—N-(1-(3-amino-5-(trifluoromethyl)phenyl)ethyl)-2-chloro-6-(4-methylpiperazin-1-yl)pyrido[3,4-d]pyrimidin-4-amine]", "inhibition at 1 µM": "≥ 50"}
{"smiles": "CCN1CCN(c2cc3c(N[C@H](C)c4cc(N)cc(C(F)(F)F)c4)nc(Cl)nc3cc2F)CC1", "note": "[Example 70, (R)—N-(1-(3-amino-5-(trifluoromethyl)phenyl)ethyl)-2-chloro-6-(4-ethylpiperazin-1-yl)-7-fluoroquinazolin-4-amine]", "inhibition at 1 µM": "≥ 50"}
{"smiles": "CCN1CCN(c2cc3c(N[C@H](C)c4cc(N)cc(C(F)(F)F)c4)nc(Cl)nc3cc2C)CC1", "note": "[Example 71, (R)—N-(1-(3-amino-5-(trifluoromethyl)phenyl)ethyl)-2-chloro-6-(4-ethylpiperazin-1-yl)-7-methylquinazolin-4-amine]", "inhibition at 1 µM": "≥ 50"}
{"smiles": "COC1CCN(c2cc3c(N[C@H](C)c4cc(N)cc(C(F)(F)F)c4)nc(N4CCC4)nc3cn2)CC1", "note": "[Example 40, (R)—N-(1-(3-amino-5-(trifluoromethyl)phenyl)ethyl)-2-(azetidin-1-yl)-6-(4-methoxypiperidin-1-yl)pyrido[3,4-d]pyrimidin-4-amine]", "inhibition at 1 µM": "≥ 50"}
{"smiles": "C[C@@H](Nc1nc(Cl)nc2cnc(C3CCOCC3)cc12)c1cc(N)cc(C(F)(F)F)c1", "note": "[Example 63, (R)—N-(1-(3-amino-5-(trifluoromethyl)phenyl)ethyl)-2-chloro-6-(tetrahydro-2H-pyran-4-yl)pyrido[3,4-d]pyrimidin-4-amine]", "inhibition at 1 µM": "≥ 50"}
{"smiles": "CCN1CCN(c2cc3c(N[C@H](C)c4cc(N)cc(C(F)(F)F)c4)nc(N4CCC4)nc3cn2)CC1", "note": "[Example 48, (R)—N-(1-(3-amino-5-(trifluoromethyl)phenyl)ethyl)-2-(azetidin-1-yl)-6-(4-ethylpiperazin-1-yl)pyrido[3,4-d]pyrimidin-4-amine]", "inhibition at 1 µM": "≥ 50"}
{"smiles": "C[C@@H](Nc1nc(Cl)nc2ncc(N3CCN(C)CC3)cc12)c1cc(N)cc(C(F)(F)F)c1", "note": "[Example 82, (R)—N-(1-(3-amino-5-(trifluoromethyl)phenyl)ethyl)-2-chloro-6-(4-methylpiperazin-1-yl)pyrido[2,3-d]pyrimidin-4-amine]", "inhibition at 1 µM": "≥ 50"}
{"smiles": "CC(C)N1CCN(c2cc3c(N[C@H](C)c4cc(N)cc(C(F)(F)F)c4)nc(N(C)C)nc3cn2)CC1", "note": "[Example 50, (R)—N4-(1-(3-amino-5-(trifluoromethyl)phenyl)ethyl)-6-(4-isopropylpiperazin-1-yl)-N2,N2-dimethylpyrido[3,4-d]pyrimidine-2,4-diamine]", "inhibition at 1 µM": "≥ 50"}
{"smiles": "C[C@@H](Nc1nc(N2CCC2)nc2cnc(C3CCOCC3)cc12)c1cc(N)cc(C(F)(F)F)c1", "note": "[Example 67, (R)—N-(1-(3-amino-5-(trifluoromethyl)phenyl)ethyl)-2-(azetidin-1-yl)-6-(tetrahydro-2H-pyran-4-yl)pyrido[3,4-d]pyrimidin-4-amine]", "inhibition at 1 µM": "≥ 50"}
{"smiles": "C[C@@H](Nc1nc(N2CCC2)nc2cnc(C3CCN(C)CC3)cc12)c1cc(N)cc(C(F)(F)F)c1", "note": "[Example 68, (R)—N-(1-(3-amino-5-(trifluoromethyl)phenyl)ethyl)-2-(azetidin-1-yl)-6-(1-methylpiperidin-4-yl)pyrido[3,4-d]pyrimidin-4-amine]", "inhibition at 1 µM": "≥ 50"}
{"smiles": "C[C@@H](Nc1nc(NC(=O)CN)nc2cnc(N3CCCC3)cc12)c1cc(N)cc(C(F)(F)F)c1", "note": "[Example 77, (R)-2-amino-N-(4-((1-(3-amino-5-(trifluoromethyl)phenyl)ethyl)amino)-6-(pyrrolidin-1-yl)pyrido[3,4-d]pyrimidin-2-yl)acetamide hydro chloride]", "inhibition at 1 µM": "≥ 50"}
{"smiles": "CNCCNc1nc(N[C@H](C)c2cc(N)cc(C(F)(F)F)c2)c2cc(N3CCCC3)ncc2n1", "note": "[Example 39, (R)—N4-(1-(3-amino-5-(trifluoromethyl)phenyl)ethyl)-N2-(2-(methylamino)ethyl)-6-(pyrrolidin-1-yl)pyrido[3,4-d]pyrimidine-2,4-diamine]", "inhibition at 1 µM": "≥ 50"}
{"smiles": "C[C@@H](Nc1nc(N2CCC2)nc2cnc(N3CCOCC3)cc12)c1cc(N)cc(C(F)(F)F)c1", "note": "[Example 37, (R)—N-(1-(3-amino-5-(trifluoromethyl)phenyl)ethyl)-2-(azetidin-1-yl)-6-morpholinopyrido[3,4-d]pyrimidin-4-amine]", "inhibition at 1 µM": "≥ 50"}
{"smiles": "C[C@@H](Nc1nc(Cl)cc2ncc(N3CCOCC3)cc12)c1cc(N)cc(C(F)(F)F)c1", "note": "[Example 89, (R)—N-(1-(3-amino-5-(trifluoromethyl)phenyl)ethyl)-7-chloro-3-morpholino-1,6-naphthyridin-5-amine]", "inhibition at 1 µM": "≥ 50"}
{"smiles": "C[C@@H](Nc1nc(N(C)C)nc2cnc(N3CCCC3)cc12)c1cc(N)cc(C(F)(F)F)c1", "note": "[Example 2, N4—(R)-(1-(3-amino-5-(trifluoromethyl)phenyl)ethyl)-N2,N2-dimethyl-6-(pyrrolidin-1-yl)pyrido[3,4-d]pyrimidine-2,4-diamine]", "inhibition at 1 µM": "≥ 50"}
{"smiles": "C[C@@H](Nc1nc(Cl)nc2cnc(N3CCCC3)cc12)c1cc(N)cc(C(F)(F)F)c1", "note": "[Example 1, (R)—N-(1-(3-amino-5-(trifluoromethyl)phenyl)ethyl)-2-chloro-6-(pyrrolidin-1-yl)pyrido[3,4-d]pyrimidin-4-amine]", "inhibition at 1 µM": "≥ 50"}
{"smiles": "CNc1nc(N[C@H](C)c2cc(N)cc(C(F)(F)F)c2)c2cc(N3CCC(OC)CC3)ncc2n1", "note": "[Example 30, (R)—N4-(1-(3-amino-5-(trifluoromethyl)phenyl)ethyl)-6-(4-methoxypiperidin-1-yl)-N2-methylpyrido[3,4-d]pyrimidine-2,4-diamine]", "inhibition at 1 µM": "≥ 50"}
{"smiles": "C[C@@H](Nc1nc(N(C)C)nc2cnc(C3CCOCC3)cc12)c1cc(N)cc(C(F)(F)F)c1", "note": "[Example 65, (R)—N4-(1-(3-amino-5-(trifluoromethyl)phenyl)ethyl)-N2,N2-dimethyl-6-(tetrahydro-2H-pyran-4-yl)pyrido[3,4-d]pyrimidine-2,4-diamine]", "inhibition at 1 µM": "≥ 50"}
{"smiles": "CNCCC(=O)Nc1nc(N[C@H](C)c2cc(N)cc(C(F)(F)F)c2)c2cc(N3CCOCC3)ncc2n1", "note": "[Example 79, (R)—N-(4-((1-(3-amino-5-(trifluoromethyl)phenyl)ethyl)amino)-6-morpholinopyrido[3,4-d]pyrimidin-2-yl)-3-(methylamino)propanamide]", "inhibition at 1 µM": "≥ 50"}
{"smiles": "C[C@@H](Nc1nc(N2CCC2)nc2cnc(N3CCN(C4CCC4)CC3)cc12)c1cc(N)cc(C(F)(F)F)c1", "note": "[Example 52, (R)—N-(1-(3-amino-5-(trifluoromethyl)phenyl)ethyl)-2-(azetidin-1-yl)-6-(4-cyclobutylpiperazin-1-yl)pyrido[3,4-d]pyrimidin-4-amine]", "inhibition at 1 µM": "≥ 50"}
